According to PMC8573170 (The Journal of Biological Chemistry, 2021):
Entries after “also recorded” stand apart in the source; their conditions may differ.

Legend:
α-thrombin [1] = assay: thrombin (1 μM) in 25 mM Tris-HCl pH 8.0 containing 150 mM NaCl; conditions: human, 37 °C, up to 2 h
Wistar rats [2] = assay: Ex vivo aPTT of plasma from treated rats; assay type: in vivo; conditions: rat; heparin 50 μg/kg intraperitoneal; 2 and 12 h posttreatment
Experimental: A total number of 24 animals were randomly distributed into four groups (n= 6 per group) and injected intraperitoneally (300 μl) with: (i) PBS; (ii) heparin (50 μg/kg); (iii) XC-43 (0.5 mg/kg); or (iv) XC-43 (1.0 mg/kg). Animals were anesthetized with isoflurane (5% for induction; 2% for maintenance) and blood samples were obtained at 0, 2, 12, and 24 h posttreatment in 1:10 (v/v) 3.8% trisodium citrate. The PPP was obtained by blood centrifugation (1500g for 10 min) and the aPTT evaluated using the APTT ellagic kit (Wiener Lab). Clot formation was monitored at 650 nm using a SpectraMax M3 (Molecular Devices).

α-thrombin [3] = target: T1, α-thrombin (Homo sapiens, UniProt P00734); assay: Isothermal titration calorimetry; parameters: Kinetic assays were performed using human α-thrombin (Enzyme Research Laboratories); purchased Enzyme Research Laboratories; conditions: using a maximum c value of 500; single binding site; read-out: KD, ITC bound
Experimental: Isothermal titration calorimetric experiments were performed with a Microcal VP-ITC instrument at 30 °C. Human α-thrombin and XC-43 were dissolved in PBS, pH 7.4 at concentrations of 1 μM and 10 μM, respectively. XC-43 was added as 10-μl injections to the protein sample contained in the calorimeter cell. Calculated injection enthalpies were fit to a single-site binding model in the Microcal data evaluation software.
Figure S3: Analysis of XC-43 binding with thrombin using isothermal titration calorimetry. XC-43 (10 µM) was added to a solution of thrombin (1 µM) in a series of 10 µl injections. Heats were record ed on a VP -IT C MicroCalorimeter and the data fitted using a singl e binding site model. The high affinity makes the magnitude […]
association constant (K) must be ≥ 5 × 10 8 M −1 ( KD ≤ 2 nM ) with a single peptide binding site per thrombin […]
(§1) (1 picture or pasted object on this page, not shown here)

thrombin = thrombin (Homo sapiens, UniProt P00734); assay: Cleavage of peptides by thrombin in solution, measured by mass spectrometry; assay type: in vitro ADME; conditions: 25 μM peptide, 1 μM thrombin (25:1); 2 h at 37 °C; 25 mM Tris-HCl pH 8.0, 150 mM NaCl; ESI-MS
Experimental: To detect cleavage of XC-42 and XC-43 by thrombin in solution, we incubated each peptide separately at a concentration of 25 μM in the presence of thrombin (1 μM) in 25 mM Tris-HCl pH 8.0 containing 150 mM NaCl for 2 h at 37 °C. Reactions were stopped by adjusting the pH to 2.0 with the addition of TFA. A Q Exactive plus (Thermo Fisher Scientific) mass spectrometer was used to carry out ESI-MS experiments. The instrument was operated at a resolution of 280k, spray voltage of 3.5 kV, and capillary temperature of 250 °C. Samples were desalted by C18 Zip-tip (Millipore) and dissolved in 200 μl of reconstitution buffer (50% acetonitrile, 49% water, 1% TFA). Samples were introduced using a syringe pump (Thermo Fisher Scientific) with a flow rate of 5 μl/min. Xtract was used to deconvolute the raw data.

α-thrombin [4] = target: T1, α-thrombin; assay: SPR, peptides passed over immobilized thrombin; assay type: binding; conditions: thrombin amine-coupled on CM5 chip; peptides 0-50 nM; single cycle; compared with biotinylated XC-43 surface
Experimental: Evaluation of binding kinetics by SPR was performed using a Biacore T200 instrument. Synthetic XC-43 containing covalently linked biotin at the N-terminal amino group and the ε-amino group of Lys 1 was bound to a surface of immobilized neutravidin on a CM-5 chip. After conditioning, human α-thrombin was passed over the surface, and kinetic data were collected in single cycle mode using a running buffer of 10 mM HEPES pH 7.4, 150 mM NaCl (HBS). The data were fit to a 1:1 Langmuir binding model. Binding was also analyzed after immobilization of α-thrombin on a CM-5 chip using amine coupling methodology. XC-42 and XC-43 were passed over the surface, and data were collected in the single cycle mode using HBS as a running buffer. The data were fit to a 1:1 binding model as described above.
Figure S2: Surface pl asmon resonanc e in the single cycle mode of (A) XC -42 or (B) XC-43 binding to thrombin immobilized on a CM5 chip surface. Exp erimental data are shown as a solid grey line while the calculated fit is shown as a dashed line (C) Th e kinetic param eters w ere estimated by fitting a 1:1 binding model. Peptide concentrations for each experiment were, 0 nM, 6.25 nM, 12.5 nM, 25 nM, 50 nM.
as §1

α-thrombin [5] = target: T1, α-thrombin; assay: Kinetic assay of thrombin-catalyzed hydrolysis of S-2238 (Morrison equation); assay type: biochemical; parameters: Kinetic assays were performed using human α-thrombin (Enzyme Research Laboratories); purchased Enzyme Research Laboratories; conditions: summary statement in the abstract; fast, tight-binding inhibitor; read-out: dissociation constant for thrombin (abstract)
Experimental: All reactions were performed at 30 °C. Kinetic assays were performed using human α-thrombin (Enzyme Research Laboratories) and chromogenic substrate S-2238 (Diapharma) using a Thermomax micro plate reader (Molecular Devices). Reactions were performed in 100 μl of TBS buffer (10 mM Tris, 0.15 M NaCl, pH 7.4) containing 0.01% Tween-20. XC-43 (0–3.2 nM) or 0 to 15 pairs of X.cheopis salivary glands were incubated with human α-thrombin (0.2 nM) at 30 °C for 5 min followed by addition of S-2238 (50, 100, 200, 400, and 600 μM). Reactions were followed for 30 min. The inhibitory constants were determined by fitting the nonlinear regression model according to the Morrison’s equation ([43]) using the GraphPad Prism software (GraphPad Software, Inc).

Wistar rats [6] = assay: Tail bleeding assay; assay type: in vivo; conditions: rat; for increased tail bleeding vs PBS-injected animals: 30 min posttreatment, absorbance 540 nm
Experimental: The tail bleeding assay was performed with 24 animals kept at 37 °C under general anesthesia with isoflurane vaporized in 100% oxygen at a dose of 5% for induction and 2% for maintenance (flow rate of 0.5 l/min). These animals were randomly distributed into four groups (n = 6 per group) and injected intraperitoneally (300 μl) with: (i) PBS; (ii) heparin (50 μg/kg); (iii) XC-43 (0.5 mg/kg); or (iv) XC-43 (1 mg/kg). After 30 min posttreatment, a medium depth incision was performed at 3 mm from the tip of the animals' tail; the tail was submerged in a test tube containing saline solution (4 ml) and maintained for 30 min. Then, samples from saline solution were appropriately diluted and the absorbance at 540 nm was determined spectrophotometrically.

α-thrombin [7] = assay: XC-43-thrombin complex assembled in 10 mM HEPES pH 7.4, crystallized in 0.2 M magnesium acetate, 9% PEG 8000 (measured pH ∼ 7); conditions: human, room temperature

KPVEAEVAQSNLDECEVEAEVAQPKLYQRGEGGNGMEPIPEDVLNEALNA
fragment found (α-thrombin [1]): LYQRGEGGNGMEPIPEDVLNEALNA

heparin
increase of ex vivo aPTT in relation to PBS-treated animals (Wistar rats [2]): twofold

CC[C@H](C)[C@H](NC(=O)[C@@H]1CCCN1C(=O)[C@H](CCC(=O)O)NC(=O)[C@H](CCSC)NC(=O)CNC(=O)[C@H](CC(N)=O)NC(=O)CNC(=O)CNC(=O)[C@H](CCC(=O)O)NC(=O)CNC(=O)[C@H](CCCNC(=N)N)NC(=O)[C@H](CCC(N)=O)NC(=O)[C@H](Cc1ccc(O)cc1)NC(=O)[C@H](CC(C)C)NC(=O)[C@H](CCCCN)NC(=O)[C@@H]1CCCN1C(=O)[C@H](CCC(N)=O)NC(=O)[C@H](C)NC(=O)[C@@H](NC(=O)[C@H](CCC(=O)O)NC(=O)[C@H](C)NC(=O)[C@H](CCC(=O)O)NC(=O)[C@@H](NC(=O)[C@@H]1CCCN1C(=O)[C@@H](N)CCCCN)C(C)C)C(C)C)C(=O)N1CCC[C@H]1C(=O)N[C@@H](CCC(=O)O)C(=O)N[C@@H](CC(=O)O)C(=O)N[C@H](C(=O)N[C@@H](CC(C)C)C(=O)N[C@@H](CC(N)=O)C(=O)N[C@@H](CCC(=O)O)C(=O)N[C@@H](C)C(=O)N[C@@H](CC(C)C)C(=O)N[C@@H](CC(N)=O)C(=O)N[C@@H](C)C(=O)O)C(C)C [XC-43]
Kd (α-thrombin [3]): ≤ 2 nM
cleavage by thrombin in solution (in words) (thrombin): majority of the peptide was uncleaved; also recorded: largely intact; also recorded: cleaved to a relatively small degree
cleavage fragment ion intensity relative to that of the uncleaved peptide (thrombin): less than 15%
dissociation constants on immobilized thrombin, SPR (in words) (α-thrombin [4]): elevated dissociation constants
Kd (α-thrombin [5]): < 0.01 nM
increased tail bleeding vs PBS-injected animals (Wistar rats [6]; 0.5 mg/kg intraperitoneal): 3.2 fold
increased tail bleeding vs PBS-injected animals (Wistar rats [6]; 1 mg/kg intraperitoneal): 7.6 fold
increased tail bleeding vs heparin-treated animals (Wistar rats [6]; 1 mg/kg intraperitoneal, heparin 50 μg/kg): 2.3 fold

KPVEAEVAQPKLYQRGEGGNGMEPIPEDVLNEALNA
not cleaved (α-thrombin [7]): no evidence of even partial cleavage

CC[C@H](C)[C@H](NC(=O)[C@@H]1CCCN1C(=O)[C@H](CCC(=O)O)NC(=O)[C@H](CCSC)NC(=O)CNC(=O)[C@H](CC(N)=O)NC(=O)CNC(=O)CNC(=O)[C@H](CCC(=O)O)NC(=O)CNC(=O)[C@H](CCCNC(=N)N)NC(=O)[C@H](CCC(N)=O)NC(=O)[C@H](Cc1ccc(O)cc1)NC(=O)[C@H](CC(C)C)NC(=O)[C@H](CCCCN)NC(=O)[C@@H]1CCCN1C(=O)[C@H](CCC(N)=O)NC(=O)[C@H](C)NC(=O)[C@@H](NC(=O)[C@H](CCC(=O)O)NC(=O)[C@H](C)NC(=O)[C@H](CCC(=O)O)NC(=O)[C@@H](NC(=O)[C@H](CCC(=O)O)NC(=O)[C@H](CS)NC(=O)[C@H](CCC(=O)O)NC(=O)[C@H](CC(=O)O)NC(=O)[C@H](CC(C)C)NC(=O)[C@H](CC(N)=O)NC(=O)[C@H](CO)NC(=O)[C@H](CCC(N)=O)NC(=O)[C@H](C)NC(=O)[C@@H](NC(=O)[C@H](CCC(=O)O)NC(=O)[C@H](C)NC(=O)[C@H](CCC(=O)O)NC(=O)[C@@H](NC(=O)[C@@H]1CCCN1C(=O)[C@@H](N)CCCCN)C(C)C)C(C)C)C(C)C)C(C)C)C(=O)N1CCC[C@H]1C(=O)N[C@@H](CCC(=O)O)C(=O)N[C@@H](CC(=O)O)C(=O)N[C@H](C(=O)N[C@@H](CC(C)C)C(=O)N[C@@H](CC(N)=O)C(=O)N[C@@H](CCC(=O)O)C(=O)N[C@@H](C)C(=O)N[C@@H](CC(C)C)C(=O)N[C@@H](CC(N)=O)C(=O)N[C@@H](C)C(=O)O)C(C)C [XC-42]
cleavage by thrombin in solution (in words) (thrombin): majority of the peptide was uncleaved; also recorded: cleaved to a relatively small degree
dissociation constants on immobilized thrombin, SPR (in words) (α-thrombin [4]): elevated dissociation constants
